Earlier results in patent US20170246115A1, “MEDICINE” (KOWA COMPANY, LTD., priority 2012, published 2017).

Details: amorphous form formed on drying crystal form A at a water content of 4% or lower

- storage stability: considerably poor storage stability
SMILES: O=C([O-])C[C@H](O)C[C@H](O)/C=C/c1c(C2CC2)nc2ccccc2c1-c1ccc(F)cc1.O=C([O-])C[C@H](O)C[C@H](O)/C=C/c1c(C2CC2)nc2ccccc2c1-c1ccc(F)cc1.[Ca+2] [amorphous pitavastatin calcium]
